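Growth conditions: 96-well plates. Treatment: test compound, 48 hours, 5 concentrations. Analysis: linear interpolation between bracketing concentrations; unreached endpoints set to highest concentration. The concentration for 50% growth inhibition is given as GI50.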 Active and inactive are the calls of the source. Rule as the data show it: active = GI50 up to about 1.1 µM and inactive = higher.
How the values were obtained:
Assay in all cases: NCI tumour cell line growth inhibition, 48 h
MCF7 = test system: MCF7
MOLT-4 = test system: MOLT-4
SF-539 = test system: SF-539
NCI-H23 = test system: NCI-H23
A498 = test system: A498
HOP-92 = test system: HOP-92
RPMI-8226 = test system: RPMI-8226
NCI/ADR-RES = test system: NCI/ADR-RES
HOP-62 = test system: HOP-62
T47D = test system: T47D
MDA-N = test system: MDA-N
SF-268 = test system: SF-268
COLO 205 = test system: COLO 205
HT-29 = test system: HT-29
KM12 = test system: KM12
LOX IMVI = test system: LOX IMVI
TK-10 = test system: TK-10
SNB-75 = test system: SNB-75
RXF 393 = test system: RXF 393
SK-OV-3 = test system: SK-OV-3
K562 = test system: K562
SF-295 = test system: SF-295
HCT-116 = test system: HCT-116
UACC-62 = test system: UACC-62
HCT-15 = test system: HCT-15
HCC 2998 = test system: HCC 2998
M14 = test system: M14
MDA-MB-231 = test system: MDA-MB-231
U-251 = test system: U-251
NCI-H226 = test system: NCI-H226
OVCAR-3 = test system: OVCAR-3
SW-620 = test system: SW-620
ACHN = test system: ACHN
OVCAR-8 = test system: OVCAR-8
IGROV-1 = test system: IGROV-1
UACC-257 = test system: UACC-257
CAKI-1 = test system: CAKI-1
EKVX = test system: EKVX
OVCAR-5 = test system: OVCAR-5
SK-MEL-5 = test system: SK-MEL-5
UO-31 = test system: UO-31
786-0 = test system: 786-0
MDA-MB-435 = test system: MDA-MB-435
DU-145 = test system: DU-145
SK-MEL-28 = test system: SK-MEL-28
HL-60 = test system: HL-60
CCRF-CEM = test system: CCRF-CEM
NCI-H460 = test system: NCI-H460
SN12C = test system: SN12C
Hs-578T = test system: Hs-578T
Malme-3M = test system: Malme-3M
SK-MEL-2 = test system: SK-MEL-2
NCI-H522 = test system: NCI-H522
OVCAR-4 = test system: OVCAR-4
SNB-19 = test system: SNB-19
A549 = test system: A549
PC-3 = test system: PC-3
SR = test system: SR

COCOc1ccc(C(=O)Oc2cccc3c2OC(C)(C)O3)c(OCOC)c1
GI50 (MCF7): 33.2 µM (inactive) | GI50 (MOLT-4): 53.2 µM (inactive) | GI50 (SF-539): 37.7 µM (inactive) | GI50 (NCI-H23): < 0.01 µM (active) | GI50 (A498): > 100 µM (inactive) | GI50 (HOP-92): > 100 µM (inactive) | GI50 (RPMI-8226): 38.7 µM (inactive) | GI50 (NCI/ADR-RES): > 100 µM (inactive) | GI50 (HOP-62): > 100 µM (inactive) | GI50 (T47D): 37.8 µM (inactive) | GI50 (MDA-N): > 100 µM (inactive) | GI50 (SF-268): 35.6 µM (inactive) | GI50 (COLO 205): > 100 µM (inactive) | GI50 (HT-29): > 100 µM (inactive) | GI50 (KM12): 11.9 µM (inactive) | GI50 (LOX IMVI): 35.7 µM (inactive) | GI50 (TK-10): > 100 µM (inactive) | GI50 (SNB-75): 74.5 µM (inactive) | GI50 (RXF 393): 78.2 µM (inactive) | GI50 (SK-OV-3): > 100 µM (inactive) | GI50 (K562): 56.4 µM (inactive) | GI50 (SF-295): > 100 µM (inactive) | GI50 (HCT-116): > 100 µM (inactive) | GI50 (UACC-62): 28.2 µM (inactive) | GI50 (HCT-15): 83.4 µM | GI50 (HCC 2998): 62.7 µM (inactive) | GI50 (M14): 89.1 µM (inactive) | GI50 (MDA-MB-231): 15.7 µM (inactive) | GI50 (U-251): 27.9 µM (inactive) | GI50 (NCI-H226): > 100 µM (inactive) | GI50 (OVCAR-3): > 100 µM (inactive) | GI50 (SW-620): 43.2 µM (inactive) | GI50 (ACHN): > 100 µM (inactive) | GI50 (OVCAR-8): > 100 µM (inactive) | GI50 (IGROV-1): > 100 µM (inactive) | GI50 (UACC-257): > 100 µM (inactive) | GI50 (CAKI-1): > 100 µM (inactive) | GI50 (EKVX): > 100 µM (inactive) | GI50 (OVCAR-5): > 100 µM (inactive) | GI50 (SK-MEL-5): 54.8 µM (inactive) | GI50 (UO-31): 71.1 µM (inactive) | GI50 (786-0): > 100 µM (inactive) | GI50 (MDA-MB-435): 60 µM (inactive) | GI50 (DU-145): > 100 µM (inactive) | GI50 (SK-MEL-28): 9.66 µM (inactive) | GI50 (HL-60): 0.0181 µM (active) | GI50 (CCRF-CEM): 22.1 µM (inactive) | GI50 (NCI-H460): 56 µM (inactive) | GI50 (SN12C): > 100 µM (inactive) | GI50 (Hs-578T): 31.3 µM (inactive)

COc1ccc(N(CN2C(=O)CCC2C(=O)O)C(C)=O)cc1 (stereo not drawn)
GI50 (MCF7): > 100 µM (inactive) | GI50 (MOLT-4): 65.5 µM (inactive) | GI50 (SF-539): > 100 µM (inactive) | GI50 (NCI-H23): > 100 µM (inactive) | GI50 (A498): > 100 µM (inactive) | GI50 (HOP-92): > 100 µM (inactive) | GI50 (RPMI-8226): > 100 µM (inactive) | GI50 (NCI/ADR-RES): > 100 µM (inactive) | GI50 (Malme-3M): > 100 µM (inactive) | GI50 (HOP-62): > 100 µM (inactive) | GI50 (T47D): > 100 µM (inactive) | GI50 (MDA-N): > 100 µM (inactive) | GI50 (SF-268): > 100 µM (inactive) | GI50 (COLO 205): > 100 µM (inactive) | GI50 (HT-29): > 100 µM (inactive) | GI50 (KM12): > 100 µM (inactive) | GI50 (LOX IMVI): > 100 µM (inactive) | GI50 (TK-10): > 100 µM (inactive) | GI50 (SNB-75): > 100 µM (inactive) | GI50 (SK-OV-3): > 100 µM (inactive) | GI50 (SK-MEL-2): > 100 µM (inactive) | GI50 (K562): > 100 µM (inactive) | GI50 (SF-295): > 100 µM (inactive) | GI50 (HCT-116): > 100 µM (inactive) | GI50 (UACC-62): > 100 µM (inactive) | GI50 (HCT-15): > 100 µM | GI50 (HCC 2998): > 100 µM (inactive) | GI50 (M14): > 100 µM (inactive) | GI50 (NCI-H522): > 100 µM (inactive) | GI50 (MDA-MB-231): > 100 µM (inactive) | GI50 (U-251): > 100 µM (inactive) | GI50 (NCI-H226): > 100 µM (inactive) | GI50 (OVCAR-3): > 100 µM (inactive) | GI50 (SW-620): > 100 µM (inactive) | GI50 (OVCAR-4): > 100 µM (inactive) | GI50 (SNB-19): > 100 µM (inactive) | GI50 (A549): > 100 µM (inactive) | GI50 (ACHN): > 100 µM (inactive) | GI50 (OVCAR-8): > 100 µM (inactive) | GI50 (UACC-257): > 100 µM (inactive) | GI50 (CAKI-1): > 100 µM (inactive) | GI50 (EKVX): > 100 µM (inactive) | GI50 (OVCAR-5): > 100 µM (inactive) | GI50 (SK-MEL-5): > 100 µM (inactive) | GI50 (UO-31): > 100 µM (inactive) | GI50 (786-0): > 100 µM (inactive) | GI50 (PC-3): > 100 µM (inactive) | GI50 (MDA-MB-435): > 100 µM (inactive) | GI50 (DU-145): > 100 µM (inactive) | GI50 (SK-MEL-28): > 100 µM (inactive) | GI50 (HL-60): > 100 µM (inactive) | GI50 (CCRF-CEM): > 100 µM (inactive) | GI50 (NCI-H460): > 100 µM (inactive) | GI50 (SN12C): > 100 µM (inactive) | GI50 (Hs-578T): > 100 µM (inactive)

O=P(O)(O)C=C=C1CCCCC1
GI50 (MCF7): > 100 µM (inactive) | GI50 (SF-539): > 100 µM (inactive) | GI50 (NCI-H23): > 100 µM (inactive) | GI50 (A498): > 100 µM (inactive) | GI50 (HOP-92): > 100 µM (inactive) | GI50 (NCI/ADR-RES): > 100 µM (inactive) | GI50 (Malme-3M): > 100 µM (inactive) | GI50 (HOP-62): > 100 µM (inactive) | GI50 (T47D): > 100 µM (inactive) | GI50 (MDA-N): > 100 µM (inactive) | GI50 (SF-268): > 100 µM (inactive) | GI50 (COLO 205): > 100 µM (inactive) | GI50 (HT-29): > 100 µM (inactive) | GI50 (KM12): > 100 µM (inactive) | GI50 (LOX IMVI): > 100 µM (inactive) | GI50 (TK-10): > 100 µM (inactive) | GI50 (SNB-75): > 100 µM (inactive) | GI50 (RXF 393): > 100 µM (inactive) | GI50 (SK-OV-3): > 100 µM (inactive) | GI50 (SK-MEL-2): > 100 µM (inactive) | GI50 (K562): > 100 µM (inactive) | GI50 (SF-295): > 100 µM (inactive) | GI50 (HCT-116): > 100 µM (inactive) | GI50 (UACC-62): > 100 µM (inactive) | GI50 (HCT-15): > 100 µM | GI50 (HCC 2998): > 100 µM (inactive) | GI50 (M14): > 100 µM (inactive) | GI50 (NCI-H522): > 100 µM (inactive) | GI50 (U-251): > 100 µM (inactive) | GI50 (NCI-H226): > 100 µM (inactive) | GI50 (OVCAR-3): > 100 µM (inactive) | GI50 (SW-620): > 100 µM (inactive) | GI50 (OVCAR-4): > 100 µM (inactive) | GI50 (SNB-19): > 100 µM (inactive) | GI50 (A549): > 100 µM (inactive) | GI50 (ACHN): > 100 µM (inactive) | GI50 (OVCAR-8): > 100 µM (inactive) | GI50 (IGROV-1): > 100 µM (inactive) | GI50 (UACC-257): > 100 µM (inactive) | GI50 (CAKI-1): > 100 µM (inactive) | GI50 (EKVX): > 100 µM (inactive) | GI50 (OVCAR-5): > 100 µM (inactive) | GI50 (SK-MEL-5): > 100 µM (inactive) | GI50 (786-0): > 100 µM (inactive) | GI50 (PC-3): > 100 µM (inactive) | GI50 (MDA-MB-435): > 100 µM (inactive) | GI50 (DU-145): > 100 µM (inactive) | GI50 (SK-MEL-28): > 100 µM (inactive) | GI50 (SR): > 100 µM (inactive) | GI50 (HL-60): 24.3 µM (inactive) | GI50 (NCI-H460): > 100 µM (inactive) | GI50 (SN12C): > 100 µM (inactive) | GI50 (Hs-578T): > 100 µM (inactive)

— ChEMBL document CHEMBL1201862, “PubChem BioAssay data set” (2004)
